Values of other authors as cited in paper PMC8065136, “Elevated expression of the adhesion GPCR ADGRL4/ELTD1 promotes endothelial sprouting angiogenesis without activating canonical GPCR signalling” (Scientific Reports, 2021).

System: GPR97
Experimental: Another possible explanation for the lack of detectable signalling pathways is that other means of activation need to be employed to activate the receptor. Among them mechanical forces or incubation of the full length receptor with a ligand that has not yet been identified. […] Examples include beclomethasone dipropionate on GPR97[45] or Gedunin- and Khivorin-derivatives on GPR56 and GPR114[46]. It is possible that endogenous small molecules could activate ADGRL4/ELTD1 irrespective of the existence of a functional tethered agoni ...

CCC(=O)OCC(=O)[C@@]1(OC(=O)CC)[C@@H](C)C[C@H]2[C@@H]3CCC4=CC(=O)C=C[C@]4(C)[C@@]3(Cl)[C@@H](O)C[C@@]21C [beclomethasone dipropionate]
Activation of aGPCR: activate
